We go through twelve molecules from patent publication US6423707B1, “Nitroimidazole ester analogues and therapeutic applications” (California Pacific Medical Center, priority 2000, dated 2002).

Data set [1] has as its system metronidazole resistant H. pylori isolate (ATCC strain 43579). The data set can be described thus: Helicobacter pylori microbicidal assay (Example 12). Type of data set: cell-based. The conditions noted are these: for MBC: Helicobacter pylori.
For data set [2], the system named is Ohio State university Helicobactor pylori isolate working seed lot #061697. Put plainly: microbe, parasite or virus in culture. Type of data set: cell-based. The conditions noted are these: Helicobacter pylori, 72 h, read-out: MBC OSU Isolate 061697.
In data set [3] the test system is Helicobactor pylori ATCC strain 43579. Put plainly: microbe, parasite or virus in culture. The format is cell-based. The conditions noted are these: Helicobacter pylori, ATCC43579, 72 h, read-out: MBC H. Pylori 43579.
Data set [4] has as its system another H pylori isolate (a virulent human isolate used in the germ-free pig model). Put plainly: microbe, parasite or virus in culture. Type of data set: cell-based. The conditions noted are these: Helicobacter pylori.
Where [5] appears, read: ATCC43579, 72 h, read-out: MBC (Minimal Bactericidal Concentration).
Setting [6] is: ATCC43579, 72 h, read-out: MBC (Minimal Bactericidal Concentration), lowest concentration that killed 100% of the H. pylori working solution, ATCC strain 43579, metronidazole-resistant, 72 hours.
[7] abbreviates: relative to positive control (=1), ATCC strain 43579.
Where [8] appears, read: ATCC43579, lowest concentration that killed 100% of the H. pylori working solution, ATCC strain 43579, metronidazole-resistant, 72 hours, read-out: MBC (Minimal Bactericidal Concentration).

≈ marks a conversion by molar mass, not a printed value. Like-named read-outs stand apart in the source and are kept apart here. Where only a bound is given, the exact number is not on record here.

With “2-Methyl-5-nitro-1H-imidazole-1-ethyl 9,10-dihydro-9,10-dioxo-2-anthracenecarboxylate [Formula 9]”, in data set [1], the “Bactericidal Activity Index” value was 7.4 and the “MBC (Minimal Bactericidal Concentration)” value turned out to be 12 µg/mL.
As to `Cc1ncc([N+](=O)[O-])n1CCOC(=O)c1cc(C(=O)OCCn2c([N+](=O)[O-])cnc2C)cc([N+](=O)[O-])c1` [Formula 3C, Di (2-methyl-5-nitro-1H-imidazole-1-ethyl) 5-nitro-1,3-benzenedicarboxylate], in data set [1], the “Bactericidal Activity Index” value was 29.7. Also, the MBC came to 3 µg/mL in data set [1] (setting [5]), 19.8 µg/mL in data set [2] and 19.8 µg/mL in data set [3].
In turn, `Cc1ncc([N+](=O)[O-])n1CCOC(=O)c1cc(-c2ccccc2)nc2ccccc12` [Formula 4C, 2-Methyl-5-nitro-1H-imidazole-1-ethyl 2-phenyl-4-quinolinecarboxylate] showed a melting point of 122 to 124 °C. Also, in data set [1] (setting [6]), the MBC amounted to 2 µg/mL. For the same molecule, the “Bactericidal Activity Index” value in data set [1] (setting [7]) came out at 45. This molecule returned an MBC in data set [4] of 10.2 µg/mL. Further, in data set [2], the MBC was 20.5 µg/mL. For the same molecule, the MBC in data set [3] worked out at 10.3 µg/mL.
For the molecule “2-Methyl-5-nitro-1H-imidazole-1-ethyl 9-oxo-9H-thioxanthene-3-carboxylate [Formula 6]”, in data set [1], the “Bactericidal Activity Index” value stood at 6.4 and the “MBC (Minimal Bactericidal Concentration)” value amounted to 14 µg/mL.
Taken in the same sequence, the figures for “2-methyl-5-nitro-1H-imidazole-1-ethyl 1-ethyl-1,4-dihydro-7-methyl-4-oxo-1,8-naphthyridine-3-carboxylate [Formula 10]” were 12.7 and 7 µg/mL.
As to `Cc1ncc([N+](=O)[O-])n1CCOC(=O)c1cccnc1` [Formula 1C, 2-Methyl-5-nitro-1H-imidazole-1-ethyl Nicotinate], the MBC in data set [1] (setting [6]) turned out to be 4 µg/mL; in data set [2], 22.3 µg/mL; in data set [3], 22.3 µg/mL. The “MBC (Minimal Bactericidal Concentration)” value in data set [1] (lowest concentration that killed 100% of the H. pylori working solution, ATCC strain 43579, metronidazole-resistant, 72 hours) worked out at 5 µg/mL. In addition, the “Bactericidal Activity Index” value in data set [1] (setting [7]) is 17.8.
For `Cc1ncc([N+](=O)[O-])n1CCOC(=O)c1cc(=O)c2ccccc2o1` [Formula 7, 2-Methyl-5-nitro-1H-imidazole-1-ethyl 4-oxo-4H-1-benzopyran-2-carboxylate], the melting point was 210 to 212 °C (dec.). Besides, in data set [1] (setting [8]), the MBC amounted to 10 µg/mL. Moreover, the “Bactericidal Activity Index” value in data set [1] (setting [7]) amounted to 8.9.
For `Cc1ncc([N+](=O)[O-])n1CCOC(=O)N1c2ccccc2Sc2ccccc21` [Formula 5C, 2-Methyl-5-nitro-1H-imidazole-1-ethyl phenothiazine-10-carboxylate], the MBC in data set [1] (setting [6]) is 2 µg/mL; in data set [4], 10.2 µg/mL; in data set [2], 10.3 µg/mL; in data set [3], 10.3 µg/mL. Besides, the “Bactericidal Activity Index” value in data set [1] (setting [7]) is on record as 44.5.
`Cc1ncc([N+](=O)[O-])n1CCOC(=O)c1ccc(-c2ccc(Cl)cc2[N+](=O)[O-])o1` [Formula 13]: in data set [1] (setting [5]), the MBC is greater than 97 µg/mL.
Regarding `Cc1ncc([N+](=O)[O-])n1CCO` [Positive Control, metronidazole, reference compound], the MBC in data set [1] (setting [8]) worked out at 89 µg/mL (≈ 520 µM). In addition, in data set [1] (setting [7]), the “Bactericidal Activity Index” value is reported as 1.
`Cc1ncc([N+](=O)[O-])n1CCOC(=O)c1ccc([N+](=O)[O-])o1` [Formula 2C, 2-Methyl-5-nitro-1H-imidazole-1-ethyl 5-nitro-2-furoate] had a melting point of 150 to 152 °C. For the same molecule, in data set [1], the “Bactericidal Activity Index” value came out at 29.7. Besides, the MBC in data set [1] (setting [5]) came out at 3 µg/mL. For the same molecule, in data set [2], the MBC is 12.6 µg/mL. Also, in data set [3], the MBC was 12.6 µg/mL.
For the molecule `CCn1cc(C(=O)OCCn2c([N+](=O)[O-])cnc2C)c(=O)c2ccc(C)nc21` [Formula 15], the MBC in data set [1] (setting [8]) was found to be 15 µg/mL. In data set [1] (setting [7]), the “Bactericidal Activity Index” value was 8.9.
